Consider 4 substances from PMC4448209 (Journal of Neuroinflammation, 2015).

Entries after “also recorded” stand apart in the source; their conditions may differ.

Series [1] relates to IFNγ-secreting splenocytes. Nature of the series: IFNγ ELISPOT, splenocytes of immunized C57BL/6 mice. Format: in vivo, mouse.
For another series, the system named is 1C11 neuronal cells. Put plainly: IFNγ ELISPOT, restimulation with 1C11 neuronal cells. Particulars: inferred from 1C11 cells and APPPS1 CD11b^+ microglia.
The subject of series [2] is AD patients. Particulars: phase 3 studies released summer 2012; 10 (bapineuzumab), 11 (solanezumab); cited from earlier work.
Series [3] can be described thus: Hydrophobicity and solubility remark from peptide synthesis. The series is classed as physicochemical. Particulars: likely reason why the 15-mer could not be productively synthetized.
The test system of series [4] is Aβ-specific antibodies. Put plainly: Anti-Aβ antibody ELISA, HLA-A2.1/HLA-DR1 mice. Format: in vivo, mouse. Particulars: Aβ1-42-coated plates, relative OD. The method, then:
(§1) To measure serum anti-Aβ antibody titers in immunized mice, flat-bottom Nunc MaxiSorp ELISA plates were coated overnight at 4 °C with Aβ1-42 peptide (1 μg/ml in 0.1 M NaHCO3, pH 8.3). Plates were then washed twice with PBS-T and blocked with PBS-1 % BSA for 2 h at room temperature (RT). After two washes, plates were incubated for 2 h at RT with serum samples at various dilutions in blocking buffer. The Aβ1-17-specific mAb 6E10 (0.01 and 1 μg/ml) (Sigma-Aldrich, St Quentin Fallavier, France) was used as a positive internal reference sample. […] Results were expressed as relative OD = Experimental OD/Reference OD for 6E10 mAb in the same plate.

For series [5], the system named is Aβ-specific antibodies. Put plainly: Anti-Aβ antibody ELISA, C57BL/6 mice. The series is classed as in vivo, mouse. The method, then:
as §1

The test system of series [6] is AD patients. The note with it: cited from earlier work. An excerpt:
(§2) Alzheimer’s disease (AD) is a severe neurodegenerative disorder characterized by progressive loss of memory and cognitive functions. Accumulation of amyloid-β peptide (Aβ), both as soluble oligomers and in the form of amyloid plaques, plays a key role in initiating the pathogenic cascade in AD. […] In line with ...

For the next series, the system named is animal models of AD. The note with it: vaccination; cited from earlier work.
From the text: as §2

For series [7], the system named is IFNγ-secreting splenocytes. The note with it: HLA-A2.1/HLA-DR1 mice, Aβ/CpG/IFA; dendritic cells loaded with Aβ or overlapping nonamer peptides; data not shown.

Experimental for 1C11 neuronal cells: Nitrocellulose-based 96-well plates (Millipore, Billerica, MA, USA) were coated with anti-mouse IFN-γ capture mAb (1 μg/ml; clone R4-6A2, BD Biosciences) and saturated with complete culture medium. Responder splenocytes from individual mice were seeded at 10^6 or 5 × 10^5 cells/wells and cultured with medium alone or containing 10 μg/ml of peptide. In some experiments, splenocytes were stimulated with CD11b^+ microglia (3 × 10^4/wells) isolated from the brain of WT or APPPS1 mice, or with mitomycin-treated 1C11 cells (2 × 10^4/wells), a neuronal cell line expressing both APP and H-2^b MHC-I but not MHC-II molecules [25, 26]. Plates were incubated at 37 °C in 5 % CO2 for 18 h, washed, and incubated with biotinylated anti-mouse IFNγ detection mAb (0.5 μ/ml; clone XMG1.2, BD Biosciences). Alkaline phosphatase conjugated to streptavidin (Roche, France) (1/500 dilution, 100 μL/well) was then added. IFNγ-secreting cells were visualized using TNB/BCIP substrate (Promega, Charbonnières, France), and spots were counted using an automatic ELISPOT plate reader. Samples were assayed in triplicate, and the frequency of peptide-specific T cells was calculated after subtracting the mean number of spots obtained in the absence of peptide or cells.

For the substance GLMVGGVVI [Aβ33-41], the “restimulation of Aβ33-41NP-specific CD8^+ T cells by exogenously loaded native peptide” value in series [1] is given as “could not restimulate Aβ33-41NP-specific CD8^+ T cells when loaded exogenously”. Further, the “natural processing and presentation by microglia and neuronal cells” value with 1C11 neuronal cells was “can be naturally processed and presented in both microglia and neuronal cells; also recorded: appears to be naturally processed and presented to immune effectors”.

On to “solanezumab: humanized anti-Aβ monoclonal antibody”, for which the “improvement of cognitive performance” value with AD patients [2] is given as “inefficient at improving cognitive performance”.

In the case of “Aβ28-42: 15-mer candidate peptide, could not be productively synthetized (KGAIIGLMVGGVVIA; Amyloid-beta protein 42; UniProt P05067 699-713, looked up, fragment)”, in [3], the hydrophobicity entry is recorded as “very high hydrophobicity” and the solubility result was “poor solubility”.

Aβ1-42: Human Aβ1-42 peptide: in the series on Aβ-specific antibodies [4], the “Aβ-specific antibodies in serum” value is recorded as “Aβ-specific antibodies were detected”. The anti-Aβ antibody isotypes result in the series on Aβ-specific antibodies [5] is “predominantly of IgG1 and IgG2b isotypes”. Also, the “beneficial effects in AD patients” value in the series with AD patients [6] (AN1792) is reported as “modest beneficial effects”. In the series with AD patients [6] (human, in vivo), the patients developing meningoencephalitis is on record as 6%. The “benefit in animal models of AD” value in the series on animal models of AD is on record as “of benefit in animal models of AD”. For the same substance, the “CD8^+ T cell response” value in series [7] was “did not trigger any CD8^+ T cells able to recognize dendritic cells loaded with either Aβ or overlapping nonamer peptides”.
